Data: US10806795B2, “Bispecific anti-hapten/anti-blood brain barrier receptor antibodies, complexes thereof and their use as blood brain barrier shuttles” (Hoffmann-La Roche Inc., priority 2014, dated 2020)
Entries after “also recorded” stand apart in the source; their conditions may differ. Starred links: 1 amine or outer side, 2 acyl side, 3 side chain; linkers in the order of their positions; H or OH if unused. Non-standard residues stand in square brackets, D forms with d. No end group written: not given here. Pqa = (4-oxo-6-piperazin-1-yl-4H-quinazolin-3-yl)-acetic acid in the backbone, O=C(Cn1cnc2ccc(N3CCN([*:1])CC3)cc2c1=O)[*:2]; NMeR = CN[C@@H](CCCNC(=N)N)C(=O)O

How the values were obtained:
[1] = Serum stability of digoxigenylated polypeptide, free or antibody-complexed (Western Blot-related assay of serum); assay type: in vivo, mice (strain NMRI); details: 32.1 nmol, serum 0.08 h, 2 h, 4 h, 24 h, listed as non-complexed polypeptide
Experimental: Serum samples were stored at −80° C.
The determination of the amount of digoxigenylated peptide in the serum at the given time points was difficult compared to the detection of Dig-Cy5 as no direct means to detect the polypeptide in serum samples was available. Therefore, a Western Blot-related assay to detect digoxigenylated peptide in serum was established. In a first step, the serum samples were separated on reducing SDS-PAGE. Because sample preparation included exposure of the serum to high concentrations of SDS and reducing agents, complexed Dig-polypeptide conjugates can become released from the (completely denatured/unfolded) anti-digoxigenin antibody, whereas covalent conjugates remained bound. To mediate the release of the polypeptide from the non-covalent antibody complex and separate the individual components by SDS-PAGE, 2 μl of each serum sample was diluted in 18 μl 20 mM histidine/140 mM NaCl pH 6.0, mixed with 6.7 μl of 4×LDS sample buffer and 3 μl of 10× sample reducing agent (NuPAGE, Invitrogen) for 5 min at 95° C. As a control, 2 μl of serum of an untreated mouse of the same strain was used. […] Digoxigenylated polypeptides were subsequently detected on the membrane with an anti-digoxigenin antibody. […] Chemiluminescence was detected with the Lumilmager F1 (Roche) with an exposure time of 20 min.

NPY4R = NPY4R (Homo sapiens, UniProt P50391); experiment: Effect on the Y2Receptor family: NPY4R
NPY5R = target: T1, NPY5R (Homo sapiens, UniProt Q15761); experiment: Effect on the Y2Receptor family: NPY5R
T1 sequence (Q15761 1-445): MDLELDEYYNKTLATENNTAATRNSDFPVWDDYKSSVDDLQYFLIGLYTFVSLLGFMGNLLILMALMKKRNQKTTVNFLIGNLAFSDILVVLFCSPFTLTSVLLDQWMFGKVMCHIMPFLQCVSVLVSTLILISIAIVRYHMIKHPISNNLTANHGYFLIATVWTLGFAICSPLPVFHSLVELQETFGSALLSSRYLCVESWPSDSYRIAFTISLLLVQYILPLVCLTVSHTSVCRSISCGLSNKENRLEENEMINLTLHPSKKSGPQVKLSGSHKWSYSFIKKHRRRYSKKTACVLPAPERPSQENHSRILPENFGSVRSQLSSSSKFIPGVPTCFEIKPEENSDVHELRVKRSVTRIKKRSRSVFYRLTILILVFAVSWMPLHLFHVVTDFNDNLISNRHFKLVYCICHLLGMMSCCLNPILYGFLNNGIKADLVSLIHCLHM

NPY1R = target: T2, NPY1R (Homo sapiens, UniProt P25929); experiment: Effect on the Y2Receptor family: NPY1R
T2 sequence (P25929 1-384): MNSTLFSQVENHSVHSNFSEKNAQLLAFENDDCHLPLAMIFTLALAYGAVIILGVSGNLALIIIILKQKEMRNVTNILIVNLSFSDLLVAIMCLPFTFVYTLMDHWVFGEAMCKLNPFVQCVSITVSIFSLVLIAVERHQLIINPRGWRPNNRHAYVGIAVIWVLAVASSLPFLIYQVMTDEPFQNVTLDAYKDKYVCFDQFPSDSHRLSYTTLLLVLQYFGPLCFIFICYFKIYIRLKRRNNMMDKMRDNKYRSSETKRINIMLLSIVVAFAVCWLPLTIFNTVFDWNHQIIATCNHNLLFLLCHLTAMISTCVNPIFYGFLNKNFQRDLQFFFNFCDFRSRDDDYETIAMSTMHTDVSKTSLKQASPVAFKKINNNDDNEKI

NPY2R = target: T3, NPY2R (Homo sapiens, UniProt P49146); experiment: Effect on the Y2Receptor family: NPY2R
T3 sequence (P49146 1-381): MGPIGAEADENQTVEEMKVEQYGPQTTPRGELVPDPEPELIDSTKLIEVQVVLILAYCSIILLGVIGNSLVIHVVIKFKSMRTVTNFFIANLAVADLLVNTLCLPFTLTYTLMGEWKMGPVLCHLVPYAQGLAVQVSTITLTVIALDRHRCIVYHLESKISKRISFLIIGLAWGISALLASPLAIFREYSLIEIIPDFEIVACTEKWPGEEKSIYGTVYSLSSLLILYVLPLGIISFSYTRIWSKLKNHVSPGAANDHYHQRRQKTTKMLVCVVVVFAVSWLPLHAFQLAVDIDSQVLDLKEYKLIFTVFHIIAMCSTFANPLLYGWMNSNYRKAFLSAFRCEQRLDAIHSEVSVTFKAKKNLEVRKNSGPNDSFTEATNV

[2] = parameters: species or system mice; details: mouse, in vivo
From the text: The control group was not pre-injected with the anti-biotin antibody.

[3] = target: anti-helicar motif amino acid sequence antibody; experiment: Binding [Kd] of PYY peptides by anti-helicar motif amino acid sequence antibody

Sequence of NPY4R (P50391 whole entry, species assumed): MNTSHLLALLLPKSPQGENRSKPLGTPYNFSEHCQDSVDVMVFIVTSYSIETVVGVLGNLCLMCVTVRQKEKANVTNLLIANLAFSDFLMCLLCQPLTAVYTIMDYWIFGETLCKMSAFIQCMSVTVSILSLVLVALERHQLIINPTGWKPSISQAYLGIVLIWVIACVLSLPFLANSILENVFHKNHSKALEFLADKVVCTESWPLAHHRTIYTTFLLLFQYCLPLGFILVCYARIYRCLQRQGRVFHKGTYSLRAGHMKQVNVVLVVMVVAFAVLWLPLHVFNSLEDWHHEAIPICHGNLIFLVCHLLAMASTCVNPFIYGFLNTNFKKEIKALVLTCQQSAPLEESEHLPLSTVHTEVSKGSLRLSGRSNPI

NPY4R (NPY4R) | NPY5R (NPY5R) | NPY1R (NPY1R) | NPY2R (NPY2R) | Kd [3] | Compound | presence/amount of the digoxigenin polypeptide in murine serum [1] | serum half-life and exposure levels [2]
 |  |  |  |  | CC[C@H](C)[C@H](NC(C)=O)C(=O)N[C@@H](CCCCNC(=O)CCOCCOCCOCCNC(=O)CO[C@H]1CC[C@@]2(C)[C@H](CC[C@@H]3[C@@H]2C[C@@H](O)[C@]2(C)[C@@H](C4=CC(=O)OC4)CC[C@]32O)C1)C(=O)N1CCN(c2ccc3ncn(CC(=O)N[C@@H](CCCNC(=N)N)C(=O)N[C@@H](Cc4c[nH]cn4)C(=O)N[C@@H](Cc4ccc(O)cc4)C(=O)N[C@@H](CC(C)C)C(=O)N[C@@H](CC(N)=O)C(=O)N[C@@H](Cc4c[nH]c5ccccc45)C(=O)N[C@H](C(=O)N[C@H](C(=O)N[C@@H](CCCNC(=N)N)C(=O)N[C@@H](CCC(N)=O)C(=O)N(C)[C@@H](CCCNC(=N)N)C(=O)N[C@@H](Cc4ccc(O)cc4)C(N)=O)[C@@H](C)O)C(C)C)c(=O)c3c2)CC1 [Ac-PYY(PEG3-Dig)] | barely any signal associable to the small polypeptide was detectable even at the earliest time point; also recorded: very short half-life in the serum of mice | 
in- | in- | in- | 1.0 nM |  | Ac-Ile-Lys-Pqa-Arg-His-Tyr-Leu-Asn-Trp-Val-Thr-Arg-Gln-(NMe)-Arg-Try-NH2 * 4 HOAc (Ac-IK[Pqa]RHYLNWVTRQ[NMeR]Y-NH2; also: 4 HOAc salt) |  | 
 |  |  |  |  | Biotin-O2Oc-Ser-O2Oc-DADOO-Cy5 [Biotin-Cy5] |  | eliminated with a low serum half-life and low exposure levels
in- | in- |  | 6.38 nM | 12 nM | IKPEAPGEDASPEAHLANEVARLHYLNLVTRQRY-NH2 [PYY_helicar] |  | 
